Data: patent US6313090A, “Methods for treating parasitic infection using thiopeptides” (The United States of America as represented by the …, priority 2000, dated 2001)
Read-outs that look alike come from different tables or passages of the source.

Tested on: C. parvum GCH1 oocysts
Assay: Intact C. parvum oocyst assay on MDBKF5D2 cell monolayers, immunofluorescence
Type: cell-based
Settings: for inhibition at 2000 µg/mL / inhibition at 250 µg/mL / inhibition at 500 µg/mL / inhibition at 1000 µg/mL: Cryptosporidium parvum
Protocol: In vitro doses of drugs. Thiostrepton (Calbiochem) was dissolved in sterile complete Dulbecco's Modified Eagle Medium (DMEM) supplemented with dimethyl sulfoxide (DMSO) at 0.2% and tested at concentrations of 800, 400, 200, and 100, 10, 1 and 0.1 μg/ml.
(§1) Intact C. parvum oocyst asset 3.0×10^4 C. parvum GCH1 oocysts per well were incubated in the above-mentioned concentrations of drug at 37° C. (8% CO2) on confluent MDBKF5D2 cell monolayers in 96 well microtiter plates. The level of infection in each well was determined and analyzed by immunofluorescence assay at 48 hours, using C. parvum sporozoite rabbit anti-serum (0.1%) and fluorescein-conjugated goat anti-rabbit antibody (1.0%). Percent inhibition was calculated by subtracting the mean parasite/drug from the mean parasitelmedium, divided by the mean parasite/medium, all of which was multiplied by 100. The analysis was performed using MCID and an inverted microscope.
In vitro doses of drugs. Thiostrepton (Calbiochem) and Phavic (NTZ) were dissolved in sterile complete Dulbecco's Modified Eagle Medium (DMEM) supplemented with dimethyl sulfoxide (DMSO) at 0.2% and tested at concentrations of 800, 400, 200, and 100 μg/ml. NTZ was tested at concentrations of 100, 10, 1 and 0.1 μg/ml. Paromomycin (Sigma) was dissolved in DMEM and tested at concentrations of 2000, 1000, 500 and 250 μg/ml.
as §1, with “assay .” for “asset”, “plates. For some monolayers, the oocysts were incubated in DMEM on the cell monolayers for four hours, at which time the monolayers were washed and then drug was added to the wells.” for “plates.”, “parasite/medium,” for “parasitelmedium,”
In vitro doses of drugs. Thiostrepton (Calbiochem), Phavic (NTZ) were dissolved in sterile complete Dulbecco's Modified Eagle Medium (DMEM) supplemented with dimethyl sulfoxide (DMSO) at 0.2%. Thiostrepton was tested at a concentration of 800 μg/ml. NTZ was tested at a concentration of 10 μg/ml. Paromomycin was dissolved in DMEM and tested at 2000 μg/ml. Cell monolayers were infected and washed, followed by the addition of drug at time intervals of 0, 2, 4, 8 and 24 hours.
as §1, with “assay.” for “asset”, “analyze” for “analyzed”, “parasite/medium,” for “parasitelmedium,”

SMILES: NC[C@@H]1O[C@H](O[C@H]2[C@@H](O)[C@H](O[C@@H]3[C@@H](O)[C@H](N)C[C@H](N)[C@H]3O[C@H]3O[C@H](CO)[C@@H](O)[C@H](O)[C@H]3N)O[C@@H]2CO)[C@H](N)[C@@H](O)[C@@H]1O [PRM, paromomycin]
- inhibition at 2000 µg/mL (0 h, Table 5, 2000 μg/ml, drug added at 0 hrs, read-out: Inhibition Percent): 77.4%
- inhibition at 2000 µg/mL (0 h, Table 5, 2000 μg/ml, drug added at 0 hrs, read-out: Inhibition Score): 71 to 90%
- inhibition at 2000 µg/mL (2 h, Table 5, 2000 μg/ml, drug added at 2 hrs, read-out: Inhibition Percent): 89.4%
- inhibition at 2000 µg/mL (2 h, Table 5, 2000 μg/ml, drug added at 2 hrs, read-out: Inhibition Score): 71 to 90%
- inhibition at 250 µg/mL (4 h, Table 4 Washed at 4 hours, 250 μg/ml, read-out: Inhibition Percent): 59.3%
- inhibition at 250 µg/mL (4 h, Table 4 Washed at 4 hours, 250 μg/ml, read-out: Inhibition Score): 56 to 70%
- inhibition at 500 µg/mL (4 h, Table 4 Washed at 4 hours, 500 μg/ml, read-out: Inhibition Percent): 69.2%
- inhibition at 500 µg/mL (4 h, Table 4 Washed at 4 hours, 500 μg/ml, read-out: Inhibition Score): 56 to 70%
- inhibition at 1000 µg/mL (4 h, Table 4 Washed at 4 hours, 1000 μg/ml, read-out: Inhibition Percent): 79.2%
- inhibition at 1000 µg/mL (4 h, Table 4 Washed at 4 hours, 1000 μg/ml, read-out: Inhibition Score): 71 to 90%
- inhibition at 2000 µg/mL (4 h, Table 4 Washed at 4 hours, 2000 μg/ml, read-out: Inhibition Percent): 82.5%
- inhibition at 2000 µg/mL (4 h, Table 4 Washed at 4 hours, 2000 μg/ml, read-out: Inhibition Score): 71 to 90%
- inhibition at 2000 µg/mL (4 h, Table 5, 2000 μg/ml, drug added at 4 hrs, read-out: Inhibition Percent): 79%
- inhibition at 2000 µg/mL (4 h, Table 5, 2000 μg/ml, drug added at 4 hrs, read-out: Inhibition Score): 71 to 90%
- inhibition at 2000 µg/mL (8 h, Table 5, 2000 μg/ml, drug added at 8 hrs, read-out: Inhibition Percent): 72.2%
- inhibition at 2000 µg/mL (8 h, Table 5, 2000 μg/ml, drug added at 8 hrs, read-out: Inhibition Score): 71 to 90%
- inhibition at 2000 µg/mL (24 h, Table 5, 2000 μg/ml, drug added at 24 hrs, read-out: Inhibition Percent): 27%
- inhibition at 2000 µg/mL (24 h, Table 5, 2000 μg/ml, drug added at 24 hrs, read-out: Inhibition Score): 0 to 30%
- inhibition at 2000 µg/mL (Table 1, 2000 μg/ml, read-out: Inhibition Percent): 73.2%
- inhibition at 2000 µg/mL (Table 1, 2000 μg/ml, read-out: Inhibition Score): 71 to 90%
- inhibition at 2000 µg/mL (Table 2, 2 mg/ml, read-out: Inhibition Percent): 69.7%
- inhibition at 2000 µg/mL (Table 2, 2 mg/ml, read-out: Inhibition Score): 56 to 70%
- inhibition at 250 µg/mL (Table 3 Unwashed, 250 μg/ml, read-out: Inhibition Percent): 68%
- inhibition at 250 µg/mL (Table 3 Unwashed, 250 μg/ml, read-out: Inhibition Score): 56 to 70%
- inhibition at 500 µg/mL (Table 3 Unwashed, 500 μg/ml, read-out: Inhibition Percent): 71.9%
- inhibition at 500 µg/mL (Table 3 Unwashed, 500 μg/ml, read-out: Inhibition Score): 71 to 90%
- inhibition at 1000 µg/mL (Table 3 Unwashed, 1000 μg/ml, read-out: Inhibition Percent): 79.3%
- inhibition at 1000 µg/mL (Table 3 Unwashed, 1000 μg/ml, read-out: Inhibition Score): 71 to 90%
- inhibition at 2000 µg/mL (Table 3 Unwashed, 2000 μg/ml, read-out: Inhibition Percent): 81.9%
- inhibition at 2000 µg/mL (Table 3 Unwashed, 2000 μg/ml, read-out: Inhibition Score): 71 to 90%
- inhibition at 2000 µg/mL (Table 6, 2 mg/ml, read-out: Inhibition Percent): 76.3%
- inhibition at 2000 µg/mL (Table 6, 2 mg/ml, read-out: Inhibition Score): 71 to 90%
- Parasite Count (Table 1, 2000 μg/ml): 278.06
- Inhibition Percent (Table 2, 2 mg/ml): 76.61%
- Inhibition Score (Table 2, 2 mg/ml): 3 (3: 71-90%)
- Parasite Count (Table 2, 2 mg/ml): 423.81
- Parasite Count (Table 2, 2 mg/ml, listed as PRM/DMSO): 369.81
- Parasite Count (Table 3 Unwashed, 250 μg/ml): 453.94
- Parasite Count (Table 3 Unwashed, 500 μg/ml): 398.31
- Parasite Count (Table 3 Unwashed, 1000 μg/ml): 293.56
- Parasite Count (Table 3 Unwashed, 2000 μg/ml): 256.38
- Parasite Count (Table 4 Washed at 4 hours, 250 μg/ml): 492.13
- Parasite Count (Table 4 Washed at 4 hours, 500 μg/ml): 372.44
- Parasite Count (Table 4 Washed at 4 hours, 1000 μg/ml): 251.88
- Parasite Count (Table 4 Washed at 4 hours, 2000 μg/ml): 211.38
- Parasite Count (Table 5, 2000 μg/ml, drug added at 0 hrs): 287.63
- Parasite Count (Table 5, 2000 μg/ml, drug added at 2 hrs): 134.94
- Parasite Count (Table 5, 2000 μg/ml, drug added at 4 hrs): 267.25
- Parasite Count (Table 5, 2000 μg/ml, drug added at 8 hrs): 354.06
- Parasite Count (Table 5, 2000 μg/ml, drug added at 24 hrs): 929.19
- Parasite Count (Table 6, 2 mg/ml): 325.75
- activity when drug is added 24 hours after infection (intracellular stages only): activity drops
